Measured values as given in the NIST ThermoML archive (doi:10.1016/j.jct.2015.05.020).
± gives the expanded uncertainty stated by the source.

How the values were obtained:
[1] = Crystal; visual observation
[2] = Molar enthalpy of transition or fusion; conditions: Crystal; DSC

Compound: COc1cc(C=O)ccc1O [vanillin]
- Normal melting temperature [1]: 81.60 ± 1.1 °C
- Molar enthalpy of transition or fusion [2]: 5.92 ± 0.406 kcal/mol
